Reference: the NIST ThermoML archive (doi:10.1016/j.jct.2015.11.021)
Numbers after ± are expanded uncertainties.

Conditions: Liquid, Closed cell (Static) method

vapor or sublimation pressure (303.15 K) [kPa] | vapor or sublimation pressure (323.15 K) [kPa] | vapor or sublimation pressure (343.15 K) [kPa] | vapor or sublimation pressure (363.15 K) [kPa] | vapor or sublimation pressure (373.15 K) [kPa] | Structure (SMILES)
177.8 ± 1.1 | 344.7 ± 1.2 | 610.2 ± 1.5 | 1006.7 ± 2 | 1266.2 ± 2.4 | FC(F)CC(F)(F)F [1,1,1,3,3-pentafluoropropane]
283.7 ± 1.1 | 496.2 ± 1.2 | 809.8 ± 1.5 | 1249.8 ± 2.1 | 1526.8 ± 2.4 | CCCC [butane]
